Data as given in ChEMBL document CHEMBL1153045, “Aminopiperidine-fused imidazoles as dipeptidyl peptidase-IV inhibitors” (Bioorg Med Chem Lett, 2009).

Columns and labels:
[1] = system: Mus musculus; assay: Reduction in glucose excursion in C57BL/6N lean mouse at 3 mg/kg, po administered as single dose 60 mins before dextrose challenge by oral glucose tolerance test; format: functional; set-up: scale not given: the % may be the effect or the level left
[2] = Plasma clearance in dog at 1 mg/kg, iv or 2 mg/kg, po; format: ADME, organism-based, Canis lupus familiaris
[3] = Fraction unbound in mouse plasma; format: ADME, cell-free
[4] = Plasma concentration in C57BL/6N lean mouse at 1 mg/kg, po administered as single dose 60 mins before dextrose challenge by oral glucose tolerance test; format: ADME, organism-based; set-up: dose 1 mg/kg, route oral
[5] = system: Mus musculus; assay: Inhibition of DPP4 in C57BL/6N lean mouse at 1 mg/kg, po administered as single dose 60 mins before dextrose challenge by oral glucose tolerance test; format: functional
[6] = Inhibition of rabbit L-type calcium channel; set-up: species or system Oryctolagus cuniculus
[7] = Half life in dog at 1 mg/kg, iv or 2 mg/kg, po; format: ADME, organism-based, Canis lupus familiaris; conditions: in vivo
[8] = biological target: Dipeptidyl peptidase 8 (Homo sapiens, UniProt Q6V1X1); assay: Inhibition of human DPP8 expressed in baculovirus by continuous fluorescent assay
[9] = Oral bioavailability in mouse at 2 mg/kg, po; format: ADME, organism-based; conditions: in vivo
[10] = biological target: Dipeptidyl peptidase 2 (Homo sapiens, UniProt Q9UHL4); assay: Inhibition of human recombinant QPP transfected in insect SF9 cells
[11] = biological target: Dipeptidyl peptidase 9 (Homo sapiens, UniProt Q86TI2); assay: Inhibition of human DPP9 expressed in baculovirus by continuous fluorescent assay
[12] = biological target: Dipeptidyl peptidase 4 (Mus musculus, UniProt P28843); assay: Inhibition of C57BL/6N mouse DPP4
[13] = biological target: Cytochrome P450 2D6 (Homo sapiens, UniProt P10635); assay: Inhibition of CYP2D6; format: ADME
[14] = Half life in rhesus monkey at 1 mg/kg, iv or 2 mg/kg, po; format: ADME, organism-based, Macaca mulatta; conditions: in vivo
[15] = Oral bioavailability in dog at 2 mg/kg, po; format: ADME, organism-based, Canis lupus familiaris; conditions: in vivo
[16] = Plasma clearance in rhesus monkey at 1 mg/kg, iv or 2 mg/kg, po; format: ADME, organism-based, Macaca mulatta
[17] = system: Mus musculus; assay: Reduction in glucose excursion in C57BL/6N lean mouse at 0.1 mg/kg, po administered as single dose 60 mins before dextrose challenge by oral glucose tolerance test; format: functional; set-up: scale not given: the % may be the effect or the level left
[18] = Half life in mouse at 1 mg/kg, iv or 2 mg/kg, po; format: ADME, organism-based; conditions: in vivo
[19] = Plasma clearance in mouse at 1 mg/kg, iv or 2 mg/kg, po; format: ADME, organism-based
[20] = Oral bioavailability in rhesus monkey at 2 mg/kg, po; format: ADME, organism-based, Macaca mulatta; conditions: in vivo
[21] = Half life in rat at 1 mg/kg, iv or 2 mg/kg, po; format: ADME, organism-based; conditions: in vivo
[22] = Oral bioavailability in rat at 2 mg/kg, po; format: ADME, organism-based; conditions: in vivo
[23] = Plasma clearance in rat at 1 mg/kg, iv or 2 mg/kg, po; format: ADME, organism-based
[24] = Metabolic stability in rhesus monkey liver microsomes assessed as compound remaining after 60 mins; format: ADME, Macaca mulatta, Microsome; conditions: read-out: Stability
[25] = Metabolic stability in rhesus monkey hepatocytes assessed as compound remaining after 60 mins; format: ADME, cell-based, Macaca mulatta, Hepatocyte; conditions: read-out: Stability
[26] = Metabolic stability in rat hepatocytes assessed as compound remaining after 60 mins; format: ADME, cell-based, Hepatocyte; conditions: read-out: Stability
[27] = Metabolic stability in dog hepatocytes assessed as compound remaining after 60 mins; format: ADME, cell-based, Canis lupus familiaris, Hepatocyte; conditions: read-out: Stability
[28] = Metabolic stability in rat liver microsomes assessed as compound remaining after 60 mins; format: ADME, Microsome; conditions: read-out: Stability
[29] = Metabolic stability in human liver microsomes assessed as compound remaining after 60 mins; format: ADME, Microsome; conditions: read-out: Stability
[30] = Metabolic stability in human hepatocytes assessed as compound remaining after 60 mins; format: ADME, cell-based, Hepatocyte; conditions: read-out: Stability
[31] = Metabolic stability in dog liver microsomes assessed as compound remaining after 60 mins; format: ADME, Canis lupus familiaris, Microsome; conditions: read-out: Stability
[32] = biological target: Voltage-gated inwardly rectifying potassium channel KCNH2 (Homo sapiens, UniProt Q12809); assay: Inhibition of human ERG
Voltage-gated inwardly rectifying potassium channel KCNH2, sequence (Q12809 whole entry): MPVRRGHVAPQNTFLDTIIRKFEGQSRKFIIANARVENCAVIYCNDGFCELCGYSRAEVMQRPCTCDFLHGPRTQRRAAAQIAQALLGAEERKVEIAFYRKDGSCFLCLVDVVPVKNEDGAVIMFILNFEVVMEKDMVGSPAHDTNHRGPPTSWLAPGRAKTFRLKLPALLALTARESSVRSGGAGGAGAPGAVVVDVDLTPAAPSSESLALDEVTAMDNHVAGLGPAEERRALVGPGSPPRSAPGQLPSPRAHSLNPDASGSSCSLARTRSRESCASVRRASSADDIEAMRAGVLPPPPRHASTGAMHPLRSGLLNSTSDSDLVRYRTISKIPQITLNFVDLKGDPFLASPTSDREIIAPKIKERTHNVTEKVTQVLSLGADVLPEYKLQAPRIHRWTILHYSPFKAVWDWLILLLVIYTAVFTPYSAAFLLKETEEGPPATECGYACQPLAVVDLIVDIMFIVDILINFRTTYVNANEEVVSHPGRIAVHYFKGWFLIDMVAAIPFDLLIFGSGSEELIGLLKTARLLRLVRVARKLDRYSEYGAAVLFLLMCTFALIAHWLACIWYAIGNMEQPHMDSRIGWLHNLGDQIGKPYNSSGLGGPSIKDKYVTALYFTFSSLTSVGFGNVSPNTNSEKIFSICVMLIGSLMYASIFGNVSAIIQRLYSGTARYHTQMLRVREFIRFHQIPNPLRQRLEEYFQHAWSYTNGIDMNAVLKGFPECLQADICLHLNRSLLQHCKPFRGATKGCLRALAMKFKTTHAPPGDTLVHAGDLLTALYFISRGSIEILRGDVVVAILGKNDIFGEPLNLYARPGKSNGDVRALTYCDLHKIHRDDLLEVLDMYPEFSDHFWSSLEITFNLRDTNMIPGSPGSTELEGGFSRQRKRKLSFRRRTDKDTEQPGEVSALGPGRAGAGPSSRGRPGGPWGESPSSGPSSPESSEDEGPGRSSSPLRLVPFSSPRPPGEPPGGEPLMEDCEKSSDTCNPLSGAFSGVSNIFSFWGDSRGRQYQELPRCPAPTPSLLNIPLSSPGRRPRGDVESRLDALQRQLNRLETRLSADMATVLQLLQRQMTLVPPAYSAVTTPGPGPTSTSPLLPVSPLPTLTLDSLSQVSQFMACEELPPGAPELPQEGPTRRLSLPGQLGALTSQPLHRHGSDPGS

Dipeptidyl peptidase 8, sequence (Q6V1X1 whole entry): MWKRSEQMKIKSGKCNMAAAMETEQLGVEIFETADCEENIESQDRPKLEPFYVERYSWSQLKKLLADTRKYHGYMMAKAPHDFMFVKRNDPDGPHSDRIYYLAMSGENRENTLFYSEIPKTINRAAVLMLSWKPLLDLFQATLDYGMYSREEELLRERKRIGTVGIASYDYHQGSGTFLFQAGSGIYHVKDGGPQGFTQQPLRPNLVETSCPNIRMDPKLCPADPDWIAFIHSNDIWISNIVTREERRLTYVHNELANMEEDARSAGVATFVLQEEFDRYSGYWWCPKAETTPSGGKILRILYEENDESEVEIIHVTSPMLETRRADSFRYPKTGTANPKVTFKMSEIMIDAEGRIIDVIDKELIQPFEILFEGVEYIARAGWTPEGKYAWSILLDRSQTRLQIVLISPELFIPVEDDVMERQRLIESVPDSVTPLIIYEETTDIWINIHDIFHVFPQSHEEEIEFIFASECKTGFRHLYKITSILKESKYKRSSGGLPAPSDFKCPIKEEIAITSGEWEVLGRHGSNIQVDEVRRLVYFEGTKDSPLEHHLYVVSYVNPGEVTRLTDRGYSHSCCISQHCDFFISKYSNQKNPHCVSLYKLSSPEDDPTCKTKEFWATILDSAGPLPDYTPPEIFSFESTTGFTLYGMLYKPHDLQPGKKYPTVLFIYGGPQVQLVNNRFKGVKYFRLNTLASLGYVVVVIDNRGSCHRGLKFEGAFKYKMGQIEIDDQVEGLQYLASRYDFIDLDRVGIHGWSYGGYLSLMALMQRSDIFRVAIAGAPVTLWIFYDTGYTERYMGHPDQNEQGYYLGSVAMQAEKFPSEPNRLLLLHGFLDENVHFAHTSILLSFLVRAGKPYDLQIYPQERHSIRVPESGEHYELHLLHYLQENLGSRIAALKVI
Cytochrome P450 2D6, sequence (P10635 whole entry): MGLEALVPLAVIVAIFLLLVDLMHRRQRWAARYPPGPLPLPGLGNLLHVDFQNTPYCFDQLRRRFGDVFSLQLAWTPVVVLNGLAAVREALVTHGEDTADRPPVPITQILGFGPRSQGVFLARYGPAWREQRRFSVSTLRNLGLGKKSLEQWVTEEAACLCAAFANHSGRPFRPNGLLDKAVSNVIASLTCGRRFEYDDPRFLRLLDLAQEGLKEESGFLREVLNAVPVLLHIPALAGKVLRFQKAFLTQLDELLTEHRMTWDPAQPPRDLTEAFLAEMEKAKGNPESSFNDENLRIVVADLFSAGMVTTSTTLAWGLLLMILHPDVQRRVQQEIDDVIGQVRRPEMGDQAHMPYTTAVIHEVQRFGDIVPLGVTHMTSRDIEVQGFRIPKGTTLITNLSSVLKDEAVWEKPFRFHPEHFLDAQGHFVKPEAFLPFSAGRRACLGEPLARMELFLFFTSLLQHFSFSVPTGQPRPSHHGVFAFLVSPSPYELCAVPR
Dipeptidyl peptidase 9, sequence (Q86TI2 whole entry): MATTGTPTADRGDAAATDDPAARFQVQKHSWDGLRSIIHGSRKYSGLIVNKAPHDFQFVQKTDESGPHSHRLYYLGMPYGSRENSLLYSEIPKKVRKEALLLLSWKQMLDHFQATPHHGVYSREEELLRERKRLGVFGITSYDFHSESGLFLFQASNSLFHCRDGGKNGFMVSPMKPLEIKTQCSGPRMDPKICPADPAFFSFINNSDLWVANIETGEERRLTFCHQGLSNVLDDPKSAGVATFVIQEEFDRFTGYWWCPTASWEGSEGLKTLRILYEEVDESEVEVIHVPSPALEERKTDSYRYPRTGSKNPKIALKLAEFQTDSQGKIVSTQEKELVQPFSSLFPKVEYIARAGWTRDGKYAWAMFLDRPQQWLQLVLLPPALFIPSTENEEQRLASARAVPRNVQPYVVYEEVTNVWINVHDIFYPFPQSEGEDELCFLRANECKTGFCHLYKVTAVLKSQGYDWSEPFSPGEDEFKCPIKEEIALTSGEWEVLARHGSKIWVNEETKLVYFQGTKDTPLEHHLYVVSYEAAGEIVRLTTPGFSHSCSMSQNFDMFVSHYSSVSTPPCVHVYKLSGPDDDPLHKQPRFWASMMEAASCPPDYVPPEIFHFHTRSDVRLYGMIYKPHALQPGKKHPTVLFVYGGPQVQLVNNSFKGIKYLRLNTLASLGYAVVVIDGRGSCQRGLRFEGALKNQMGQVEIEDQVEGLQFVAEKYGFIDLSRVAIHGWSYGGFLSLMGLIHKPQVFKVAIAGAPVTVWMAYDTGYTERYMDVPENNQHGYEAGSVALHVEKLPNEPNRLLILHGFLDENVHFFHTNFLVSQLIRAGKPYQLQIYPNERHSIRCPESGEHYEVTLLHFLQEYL
Dipeptidyl peptidase 4, sequence (P28843 whole entry): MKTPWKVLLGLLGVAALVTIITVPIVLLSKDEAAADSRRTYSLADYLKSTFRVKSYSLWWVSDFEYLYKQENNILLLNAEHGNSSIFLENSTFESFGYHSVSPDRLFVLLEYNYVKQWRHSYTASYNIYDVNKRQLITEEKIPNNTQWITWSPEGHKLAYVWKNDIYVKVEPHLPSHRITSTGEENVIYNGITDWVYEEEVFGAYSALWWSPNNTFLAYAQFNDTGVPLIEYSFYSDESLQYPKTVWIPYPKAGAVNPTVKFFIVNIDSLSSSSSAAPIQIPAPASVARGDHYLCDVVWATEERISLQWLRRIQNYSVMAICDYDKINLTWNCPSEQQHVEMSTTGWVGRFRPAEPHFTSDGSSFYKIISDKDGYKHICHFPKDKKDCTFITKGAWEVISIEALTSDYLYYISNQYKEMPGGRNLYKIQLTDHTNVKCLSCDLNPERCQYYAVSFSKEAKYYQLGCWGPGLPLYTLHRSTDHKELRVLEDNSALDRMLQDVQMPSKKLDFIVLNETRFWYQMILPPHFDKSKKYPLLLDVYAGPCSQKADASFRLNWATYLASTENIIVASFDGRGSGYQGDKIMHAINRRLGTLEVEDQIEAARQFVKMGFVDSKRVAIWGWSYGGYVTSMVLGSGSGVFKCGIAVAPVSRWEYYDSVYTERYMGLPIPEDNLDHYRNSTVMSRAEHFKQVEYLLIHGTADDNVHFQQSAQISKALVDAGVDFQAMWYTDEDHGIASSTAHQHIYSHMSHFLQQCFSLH

IC50 [8] [µM]	IC50 [11] [µM]	half-life [21] [h]	bioavailability [22] [%]	clearance [23] [mL/min/kg]	Compound	further results
> 100	> 100				Cl.N[C@H]1Cn2c(nc3cnccc32)C[C@@H]1c1cc(F)c(F)cc1F	Activity [1]: 49%; clearance [2]: 2.7 mL/min/kg; fraction unbound [3]: 0.55; concentration at 1 h [4]: 691 nM; inhibition in vivo at 1 mg/kg [5]: 88%; IC50 [6]: > 100 µM; half-life [7]: 13 h; bioavailability [9]: 73%; IC50 [10]: > 100 µM; IC50 [12]: 0.045 µM; IC50 [13]: 13 µM; half-life [14]: 1 h; bioavailability [15]: 120%; clearance [16]: 35 mL/min/kg; Activity [17]: 27%; half-life [18]: 1.9 h; clearance [19]: 36 mL/min/kg; bioavailability [20]: 11%
> 100	> 100	7.6	55	4.8	N[C@H]1Cn2c(nc3cc(C(F)(F)F)ccc32)C[C@@H]1c1cc(F)c(F)cc1F.O=C(O)C(F)(F)F	
> 100	> 100	2.6	140	8.7	N[C@H]1Cn2c(nc3cnccc32)C[C@@H]1c1cc(F)c(F)cc1F.O=C(O)C(F)(F)F.O=C(O)C(F)(F)F	remaining at 1 h [24]: 69%; remaining at 1 h [25]: 35%; remaining at 1 h [26]: 94%; IC50 ([10]; sf9): > 100 µM; remaining at 1 h [27]: 99%; remaining at 1 h [28]: 83%; IC50 [13]: 13 µM; remaining at 1 h [29]: 97%; remaining at 1 h [30]: 99%; remaining at 1 h [31]: 92%
	> 100				CC(=O)Nc1ccc2c(c1)nc1n2C[C@H](N)[C@@H](c2cc(F)c(F)cc2F)C1	
> 100	> 100				N[C@H]1Cn2c(nc3c(F)cccc32)C[C@@H]1c1cc(F)c(F)cc1F	
> 100	> 100				CCS(=O)(=O)c1ccc2c(c1)nc1n2C[C@H](N)[C@@H](c2cc(F)c(F)cc2F)C1	IC50 [10]: > 100 µM
	> 100				N[C@H]1Cn2c(nc3ccc(OC(F)(F)F)cc32)C[C@@H]1c1cc(F)c(F)cc1F	
> 100	> 100				CS(=O)(=O)c1ccc2nc3n(c2c1)C[C@H](N)[C@@H](c1cc(F)c(F)cc1F)C3	IC50 [10]: > 100 µM
> 100		1.4	37	25	N[C@H]1Cn2c(nc3ccc(F)cc32)C[C@@H]1c1cc(F)c(F)cc1F.O=C(O)C(F)(F)F	
> 100					COc1ccc2c(c1)nc1n2C[C@H](N)[C@@H](c2cc(F)c(F)cc2F)C1	
> 100	> 100	3.8	96	3.9	N[C@H]1Cn2c(nc3ncccc32)C[C@@H]1c1cc(F)c(F)cc1F.O=C(O)C(F)(F)F.O=C(O)C(F)(F)F	IC50 [32]: 90 µM; IC50 [6]: > 100 µM; IC50 [13]: 5.2 µM
> 100					CS(=O)(=O)Nc1ccc2c(c1)nc1n2C[C@H](N)[C@@H](c2cc(F)c(F)cc2F)C1	IC50 [32]: 2.5 µM
> 100	> 100				Cc1ccc2c(c1)nc1n2C[C@H](N)[C@@H](c2cc(F)c(F)cc2F)C1	
> 100	> 100				CN(C)C(=O)c1ccc2c(c1)nc1n2C[C@H](N)[C@@H](c2cc(F)c(F)cc2F)C1	
> 100	> 100				N[C@H]1Cn2c(nc3cccnc32)C[C@@H]1c1cc(F)c(F)cc1F	
> 100	> 100				N[C@H]1Cn2c(nc3ccccc32)C[C@@H]1c1cc(F)c(F)cc1F	
> 100		17	87	0.5	N[C@H]1Cn2c(nc3cnc(F)cc32)C[C@@H]1c1cc(F)c(F)cc1F.O=C(O)C(F)(F)F.O=C(O)C(F)(F)F	IC50 [32]: 81 µM; IC50 [6]: 1.5 µM; IC50 [13]: 12 µM
> 100					N[C@H]1Cn2c(nc3c(F)cc(F)cc32)C[C@@H]1c1cc(F)c(F)cc1F	
					N[C@H]1Cn2c(nc3ccncc32)C[C@@H]1c1cc(F)c(F)cc1F	IC50 [10]: > 100 µM
		8.7	110	1.4	N[C@H]1Cn2c(nc3cnc(C(F)(F)F)cc32)C[C@@H]1c1cc(F)c(F)cc1F.O=C(O)C(F)(F)F.O=C(O)C(F)(F)F	IC50 [6]: 96 µM; IC50 [13]: 11 µM
> 100					N[C@H]1Cn2c(nc3ccc(C(F)(F)F)cc32)C[C@@H]1c1cc(F)c(F)cc1F	
> 100					N[C@H]1Cn2c(nc3c(F)c(F)c(F)cc32)C[C@@H]1c1cc(F)c(F)cc1F	
> 100					N[C@H]1Cn2c(nc3cc(F)ccc32)C[C@@H]1c1cc(F)c(F)cc1F	
> 100	> 100	0.4	24	61	N[C@H]1Cn2c(nc3cc(C(=O)O)ccc32)C[C@@H]1c1cc(F)c(F)cc1F.O=C(O)C(F)(F)F	IC50 [10]: > 100 µM
> 100	> 100	3.4	63	2.2	CS(=O)(=O)c1ccc2c(c1)nc1n2C[C@H](N)[C@@H](c2cc(F)c(F)cc2F)C1.O=C(O)C(F)(F)F	IC50 [6]: > 100 µM; IC50 [13]: 1.5 µM
